The values below come from patent US8680159B2, “Bradykinin 1 receptor modulating compounds” (Gruenenthal GmbH, priority 2010, dated 2014).

One assay concerns the target T1, human B1R receptor (CHO K1 cells stably transfected with the human B1R gene) (Homo sapiens, UniProt P46663).
T1 construct: expressed in transfected cells; host or cells: CHO K1 cells (Chinese hamster ovary), stably transfected
T1 sequence (P46663 1-353): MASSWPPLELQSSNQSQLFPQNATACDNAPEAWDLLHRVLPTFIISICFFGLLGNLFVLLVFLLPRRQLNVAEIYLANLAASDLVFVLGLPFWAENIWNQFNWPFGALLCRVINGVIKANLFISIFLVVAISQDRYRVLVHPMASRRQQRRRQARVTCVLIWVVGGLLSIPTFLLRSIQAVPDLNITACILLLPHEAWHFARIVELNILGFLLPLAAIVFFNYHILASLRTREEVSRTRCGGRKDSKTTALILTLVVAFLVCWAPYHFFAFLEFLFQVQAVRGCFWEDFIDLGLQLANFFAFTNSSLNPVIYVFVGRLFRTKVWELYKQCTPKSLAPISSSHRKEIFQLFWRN
The assay can be described thus: Functional study on the bradykinin receptor 1 (B1R), Ca2+ fluorescence (Fluo-4) FLIPR/Novostar assay, hB1R cells. It is filed as cell-based. The following applies: CHO-K1, read-out: % Inhibition (h-B1R) at 10 μM. In a few lines: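 Test compounds (10 μM) were added first and the Ca2+ rise was scored as % activation against Lys-Des-Arg9-bradykinin (≥50 nM, human) or Des-Arg9-bradykinin (≥1 μM, rat). After 6-20 min, the matching agonist was given at its EC80, and % inhibition relative to maximal achievable inhibition was calculated.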
As usually defined, the inhibition is the share of the control response that was lost under treatment. Turning to `Cc1cc(N2CCC(N(C)C(=O)c3ccc4c(c3)C(NC(=O)c3cc(F)ccc3Cl)CC4)CC2)cc(C)n1` (stereo not drawn) [CC_H-119, 3-[(2-Chloro-5-fluoro-benzoyl)amino]-N-[1-(2,6-dimethyl-pyridin-4-yl)-piperidin-4-yl]-N-methyl-2,3-dihydro-1H-indene-5-carboxylic acid amide], the inhibition at 10 µM amounted to 100%.
For the compound `CN(C(=O)NC1CCc2ccc(C(=O)N(C)C3CCN(c4ccc5cnccc5c4)CC3)cc21)c1ccccc1Cl` (stereo not drawn) [CC_H-104, 3-[[(2-Chlorophenyl)-methyl-carbamoyl]amino]-N-(1-isoquinolin-6-yl-piperidin-4-yl)-N-methyl-2,3-dihydro-1H-indene-5-carboxylic acid amide], the inhibition at 10 µM was found to be 100%.
`CN(C(=O)NC1CCCc2ccc(C(=O)N(C)C3CCN(c4ccncc4)CC3)cc21)c1ccccc1Cl` (stereo not drawn) [CC_H-94, 8-[[(2-Chlorophenyl)-methyl-carbamoyl]amino]-N-methyl-N-(1-pyridin-4-yl-piperidin-4-yl)-5,6,7,8-tetrahydro-naphthalene-2-carboxylic acid amide]: the inhibition at 10 µM was 100%.
Take `CN(C(=O)c1ccc2c(c1)C(NC(=O)c1cncnc1)CC2)C1CCN(c2ccc3cnccc3c2)CC1` (stereo not drawn) [CC_H-130, N-[6-[(1-Isoquinolin-6-yl-piperidin-4-yl)-methyl-carbamoyl]-2,3-dihydro-1H-inden-1-yl]-pyrimidine-5-carboxylic acid amide]: the inhibition at 10 µM turned out to be 81%.
Consider `Cc1cc(N2CCC(N(C)C(=O)c3ccc4c(c3)C(NC(=O)c3cccc(Cl)c3Cl)CC4)CC2)cc(C)n1` (stereo not drawn) [CC_H-96, 3-[(2,3-Dichloro-benzoyl)amino]-N-[1-(2,6-dimethyl-pyridin-4-yl)-piperidin-4-yl]-N-methyl-2,3-dihydro-1H-indene-5-carboxylic acid amide], for which the inhibition at 10 µM came out at 100%.
On to `O=C(NCCC1CCN(c2ccncc2)CC1)c1ccc2c(c1)C(NC(=O)c1cccc(Cl)c1Cl)CC2` (stereo not drawn) [CC_H-74, 3-[(2,3-Dichloro-benzoyl)amino]-N-[2-(1-pyridin-4-yl-piperidin-4-yl)-ethyl]-2,3-dihydro-1H-indene-5-carboxylic acid amide], for which the inhibition at 10 µM stood at 96%.
Regarding `Cc1cc(N2CCC(N(C)C(=O)c3ccc4c(c3)C(N(C)C(=O)c3ccccc3Cl)CC4)CC2)cc(C)n1` (stereo not drawn) [CC_H-87, 3-[(2-Chloro-benzoyl)-methyl-amino]-N-[1-(2,6-dimethyl-pyridin-4-yl)-piperidin-4-yl]-N-methyl-2,3-dihydro-1H-indene-5-carboxylic acid amide], the inhibition at 10 µM is 100%.
The same measure, in the same setting: under `Cc1cc(N2CCC(N(C)C(=O)c3ccc4c(c3)C(NC(=O)C3CCCCC3)CC4)CC2)cc(C)n1` (stereo not drawn) [CC_H-123, 3-(Cyclohexanecarbonylamino)-N-[1-(2,6-dimethyl-pyridin-4-yl)-piperidin-4-yl]-N-methyl-2,3-dihydro-1H-indene-5-carboxylic acid amide] stands 100%; under `O=C(CCC1CCCC1)NC1CCc2ccc(C(=O)NCCC3CCN(c4ccncc4)CC3)cc21` (stereo not drawn) [CC_H-101, 3-(3-Cyclopentyl-propanoylamino)-N-[2-(1-pyridin-4-yl-piperidin-4-yl)-ethyl]-2,3-dihydro-1H-indene-5-carboxylic acid amide], 100%.
Take `CN(C(=O)c1ccc2c(c1)C(NC(=O)c1cncnc1)CCO2)C1CCN(c2ccncc2)CC1` (stereo not drawn) [CC_H-124, N-[6-[Methyl-(1-pyridin-4-yl-piperidin-4-yl)-carbamoyl]-3,4-dihydro-2H-chromen-4-yl]-pyrimidine-5-carboxylic acid amide]: the inhibition at 10 µM came out at 68%.
`CN(C(=O)c1ccc2c(c1)C(NC(=O)C(C)(C)c1ccccc1Cl)CC2)C1CCN(c2ccncc2)CC1` (stereo not drawn) [CC_H-139, 3-[[2-(2-Chlorophenyl)-2-methyl-propanoyl]amino]-N-methyl-N-(1-pyridin-4-yl-piperidin-4-yl)-2,3-dihydro-1H-indene-5-carboxylic acid amide]: the inhibition at 10 µM came to 98%.
For `Cc1cc(N2CCC(N(C)C(=O)c3ccc4c(c3)C(NC(=O)c3c(Cl)cccc3C(F)(F)F)CC4)CC2)cc(C)n1` (stereo not drawn) [CC_H-107, 3-[[2-Chloro-6-(trifluoromethyl)-benzoyl]amino]-N-[1-(2,6-dimethyl-pyridin-4-yl)-piperidin-4-yl]-N-methyl-2,3-dihydro-1H-indene-5-carboxylic acid amide], the inhibition at 10 µM turned out to be 97%.
As to `CN(C(=O)c1ccc2c(c1)C(NC(=O)c1ccccc1Cl)CC2)C1CCN(c2ccc3cnccc3c2)CC1` (stereo not drawn) [CC_H-75, 3-[(2-Chloro-benzoyl)amino]-N-(1-isoquinolin-6-yl-piperidin-4-yl)-N-methyl-2,3-dihydro-1H-indene-5-carboxylic acid amide], the inhibition at 10 µM stood at 99%.
Take `Cc1cc(N2CCC(N(C)C(=O)c3ccc4c(c3)C(NC(=O)CCC3CCCC3)CC4)CC2)cc(C)n1` (stereo not drawn) [CC_H-120, 3-(3-Cyclopentyl-propanoylamino)-N-[1-(2,6-dimethyl-pyridin-4-yl)-piperidin-4-yl]-N-methyl-2,3-dihydro-1H-indene-5-carboxylic acid amide]: the inhibition at 10 µM is 100%.
As to `O=C(NCCC1CCN(c2ccncc2)CC1)c1ccc2c(c1)C(NC(=O)C1CCCCC1)CC2` (stereo not drawn) [CC_H-116, 3-(Cyclohexanecarbonylamino)-N-[2-(1-pyridin-4-yl-piperidin-4-yl)-ethyl]-2,3-dihydro-1H-indene-5-carboxylic acid amide], the inhibition at 10 µM was found to be 92%.

Staying with this assay, now noted: CHO-K1, read-out: % inhibition (human B1R) at 10 μM.
Take `Cc1cc(N2CCC(N(C)C(=O)c3ccc4c(c3)[C@H](N(C(=O)c3cccc(F)c3Cl)C(C)C)CC4)CC2)nc(C)n1` [Example H-196, (3R)-3-[(2-Chloro-3-fluoro-benzoyl)-isopropyl-amino]-N-[1-(2,6-dimethyl-pyrimidin-4-yl)-piperidin-4-yl]-N-methyl-2,3-dihydro-1H-indene-5-carboxylic acid amide]: the inhibition at 10 µM was 98%.
Same read-out and setting: with `CC(C)N(C(=O)c1cccc(F)c1Cl)[C@@H]1CCc2ccc(C(=O)N(C)C3CCN(c4ccncc4)CC3)cc21` [Example H-202, (3R)-3-[(2-Chloro-3-fluoro-benzoyl)-isopropyl-amino]-N-methyl-N-(1-pyridin-4-yl-piperidin-4-yl)-2,3-dihydro-1H-indene-5-carboxylic acid amide] the figure was 100%; with `Cc1cc(N2CCC(N(C)C(=O)c3ccc4c(c3)[C@H](NC(=O)C3CCCC3)CC4)CC2)ccn1` [Example H-227, (3R)-3-(Cyclopentanecarbonylamino)-N-methyl-N-[1-(2-methyl-pyridin-4-yl)-piperidin-4-yl]-2,3-dihydro-1H-indene-5-carboxylic acid amide], 100%; with `Cc1cc(N2CCC(N(C)C(=O)c3ccc4c(c3)[C@H](N(C)C(=O)c3c(F)cccc3Cl)CC4)CC2)nc(C)n1` [Example H-175, (3R)-3-[(2-Chloro-6-fluoro-benzoyl)-methyl-amino]-N-[1-(2,6 dimethyl-pyrimidin-4-yl)-piperidin-4-yl]-N-methyl-2,3-dihydro-1H-indene-5-carboxylic acid amide], 97%.
For `Cc1cc(N2CCC(CCNC(=O)c3ccc4c(c3)[C@H](NC(=O)c3ccccc3Cl)CC4)CC2)nc(C)n1` [Example H-215, (3R)-3-[(2-Chloro-benzoyl)amino]-N-[2-[1-(2,6-dimethyl-pyrimidin-4-yl)-piperidin-4-yl]-ethyl]-2,3-dihydro-1H-indene-5-carboxylic acid amide], the inhibition at 10 µM was 95%.
For `COc1cc(C(=O)N[C@@H]2CCc3ccc(C(=O)N(C)C4CCN(c5ccnc(C)c5)CC4)cc32)on1` [Example H-225, 3-Methoxy-N-[(1R)-6-[methyl-[1-(2-methyl-pyridin-4-yl)-piperidin-4-yl]-carbamoyl]-2,3-dihydro-1H-inden-1-yl]-isoxazole-5-carboxylic acid amide], the inhibition at 10 µM stood at 100%.
Take `CC(C)N(C(=O)c1ccc(F)cc1Cl)[C@@H]1CCc2ccc(C(=O)N(C)C3CCN(c4ccncc4)CC3)cc21` [Example H-204, (3R)-3-[(2-Chloro-4-fluoro-benzoyl)-isopropyl-amino]-N-methyl-N-(1-pyridin-4-yl-piperidin-4-yl)-2,3-dihydro-1H-indene-5-carboxylic acid amide]: the inhibition at 10 µM came out at 100%.
The same measure, in the same setting: with `CCN(C(=O)C1CCCC1)[C@@H]1CCc2ccc(C(=O)N(C)C3CCN(c4cc(C)nc(C)n4)CC3)cc21` [Example H-229, (3R)-3-(Cyclopentanecarbonyl-ethyl-amino)-N-[1-(2,6-dimethyl-pyrimidin-4-yl)-piperidin-4-yl]-N-methyl-2,3-dihydro-1H-indene-5-carboxylic acid amide] the figure was 98%; with `Cc1cc(N2CCC(N(C)C(=O)c3ccc4c(c3)[C@H](N(C(=O)c3ccccc3C)C(C)C)CC4)CC2)nc(C)n1` [Example H-172, (3R)-N-[1-(2,6-Dimethyl-pyrimidin-4-yl)-piperidin-4-yl]-3-[isopropyl-(2-methyl-benzoyl)-amino]-N-methyl-2,3-dihydro-1H-indene-5-carboxylic acid amide], 65%.
